# Measured values taken from ChEMBL document CHEMBL3112399, “Discovery of pyrazolo[3,4-d]pyrimidine derivatives as GPR119 agonists” (Bioorg Med Chem Lett, 2014).
# Activity calls are given as the source filed them. The rule behind the calls is not given here.
# Assays:
# Cytochrome P450 2C9 = Cytochrome P450 2C9 (Homo sapiens, UniProt P11712); assay: Inhibition of CYP2C9 (unknown origin); assay type: ADME
# HIT-T15 = assay: Agonist activity at GPR119 receptor in hamster HIT-T15 cells assessed as intracellular cAMP level relative to AR-231,453; assay type: cell-based; conditions: Cricetinae
# [1] = Clearance in mouse liver microsomes; assay type: ADME, Microsome; conditions: read-out: CLH
# hERG (KCNH2) = hERG (KCNH2) (Homo sapiens, UniProt Q12809); assay: Inhibition of human ERG channel
# [2] = Kinetic solubility of the compound at pH 6.5; assay type: physicochemical; conditions: buffer, read-out: Kinetic_solubility
# [3] = Agonist activity at GPR119 receptor in hamster HIT-T15 cells assessed as intracellular cAMP level; assay type: cell-based; conditions: Cricetinae
# [4] = Cmax in mouse at 10 mg/kg, po; assay type: ADME, organism-based; set-up: dose 10 mg/kg, route oral; conditions: in vivo
# Cytochrome P450 3A4 = Cytochrome P450 3A4 (Homo sapiens, UniProt P08684); assay: Inhibition of CYP3A4 (unknown origin); assay type: ADME
# [5] = Volume of distribution in mouse at 5 mg/kg, iv; assay type: ADME, organism-based; set-up: dose 5 mg/kg, route intravenous; conditions: in vivo
# Hepatocyte = assay: Metabolic stability of the compound in mouse hepatocytes assessed as glutathione adduct formation; assay type: ADME, cell-based
# [6] = Clearance in mouse at 5 mg/kg, iv; assay type: ADME, organism-based; set-up: dose 5 mg/kg, route intravenous; conditions: in vivo
# [7] = Tmax in mouse at 10 mg/kg, po; assay type: ADME, organism-based; set-up: dose 10 mg/kg, route oral; conditions: in vivo
# [8] = AUC in mouse at 5 mg/kg, iv; assay type: ADME, organism-based; set-up: dose 5 mg/kg, route intravenous; conditions: plasma
# [9] = Oral bioavailability in mouse at 10 mg/kg; assay type: ADME, organism-based; conditions: in vivo
# Mus musculus = assay: Antihyperglycemic activity in C57Bl/6J mouse assessed as reduction of AUC (0 to 120 mins) of glucose excursion at 30 mg/kg, po administered 2 hrs before glucose challenge; assay type: functional; set-up: scale not given: the % may be the effect or the level left
# [10] = AUC in mouse at 10 mg/kg, po; assay type: ADME, organism-based; set-up: dose 10 mg/kg, route oral; conditions: plasma
# [11] = Half life in mouse at 5 mg/kg, iv; assay type: ADME, organism-based; set-up: dose 5 mg/kg, route intravenous; conditions: in vivo
# Sequence of Cytochrome P450 3A4 (P08684 whole entry): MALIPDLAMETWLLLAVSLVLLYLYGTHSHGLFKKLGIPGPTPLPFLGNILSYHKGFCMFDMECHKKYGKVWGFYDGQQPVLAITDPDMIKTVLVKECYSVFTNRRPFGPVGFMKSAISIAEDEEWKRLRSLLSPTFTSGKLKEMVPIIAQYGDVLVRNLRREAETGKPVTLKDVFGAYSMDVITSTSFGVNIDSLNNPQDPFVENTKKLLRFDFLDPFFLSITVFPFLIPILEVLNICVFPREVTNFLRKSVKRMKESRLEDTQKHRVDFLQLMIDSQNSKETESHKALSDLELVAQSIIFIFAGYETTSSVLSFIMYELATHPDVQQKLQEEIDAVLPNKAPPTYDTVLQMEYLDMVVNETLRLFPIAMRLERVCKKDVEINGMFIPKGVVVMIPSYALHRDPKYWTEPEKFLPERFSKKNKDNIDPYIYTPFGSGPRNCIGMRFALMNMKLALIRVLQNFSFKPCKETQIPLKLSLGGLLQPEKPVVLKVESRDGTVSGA
# Sequence of Cytochrome P450 2C9 (P11712 whole entry): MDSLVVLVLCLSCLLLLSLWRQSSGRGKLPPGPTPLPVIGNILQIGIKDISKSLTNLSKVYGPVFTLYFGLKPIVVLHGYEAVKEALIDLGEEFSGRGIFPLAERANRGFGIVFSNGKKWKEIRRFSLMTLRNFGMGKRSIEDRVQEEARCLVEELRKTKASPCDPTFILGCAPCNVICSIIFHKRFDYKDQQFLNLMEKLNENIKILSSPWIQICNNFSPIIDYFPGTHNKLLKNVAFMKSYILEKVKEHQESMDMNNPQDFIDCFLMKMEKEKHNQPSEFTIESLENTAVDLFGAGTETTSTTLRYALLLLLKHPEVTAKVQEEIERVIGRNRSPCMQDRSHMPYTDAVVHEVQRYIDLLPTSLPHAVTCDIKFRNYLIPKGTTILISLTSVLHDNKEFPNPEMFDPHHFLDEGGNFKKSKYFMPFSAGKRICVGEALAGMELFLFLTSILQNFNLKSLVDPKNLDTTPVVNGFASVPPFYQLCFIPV
# Sequence of hERG (KCNH2) (Q12809 whole entry): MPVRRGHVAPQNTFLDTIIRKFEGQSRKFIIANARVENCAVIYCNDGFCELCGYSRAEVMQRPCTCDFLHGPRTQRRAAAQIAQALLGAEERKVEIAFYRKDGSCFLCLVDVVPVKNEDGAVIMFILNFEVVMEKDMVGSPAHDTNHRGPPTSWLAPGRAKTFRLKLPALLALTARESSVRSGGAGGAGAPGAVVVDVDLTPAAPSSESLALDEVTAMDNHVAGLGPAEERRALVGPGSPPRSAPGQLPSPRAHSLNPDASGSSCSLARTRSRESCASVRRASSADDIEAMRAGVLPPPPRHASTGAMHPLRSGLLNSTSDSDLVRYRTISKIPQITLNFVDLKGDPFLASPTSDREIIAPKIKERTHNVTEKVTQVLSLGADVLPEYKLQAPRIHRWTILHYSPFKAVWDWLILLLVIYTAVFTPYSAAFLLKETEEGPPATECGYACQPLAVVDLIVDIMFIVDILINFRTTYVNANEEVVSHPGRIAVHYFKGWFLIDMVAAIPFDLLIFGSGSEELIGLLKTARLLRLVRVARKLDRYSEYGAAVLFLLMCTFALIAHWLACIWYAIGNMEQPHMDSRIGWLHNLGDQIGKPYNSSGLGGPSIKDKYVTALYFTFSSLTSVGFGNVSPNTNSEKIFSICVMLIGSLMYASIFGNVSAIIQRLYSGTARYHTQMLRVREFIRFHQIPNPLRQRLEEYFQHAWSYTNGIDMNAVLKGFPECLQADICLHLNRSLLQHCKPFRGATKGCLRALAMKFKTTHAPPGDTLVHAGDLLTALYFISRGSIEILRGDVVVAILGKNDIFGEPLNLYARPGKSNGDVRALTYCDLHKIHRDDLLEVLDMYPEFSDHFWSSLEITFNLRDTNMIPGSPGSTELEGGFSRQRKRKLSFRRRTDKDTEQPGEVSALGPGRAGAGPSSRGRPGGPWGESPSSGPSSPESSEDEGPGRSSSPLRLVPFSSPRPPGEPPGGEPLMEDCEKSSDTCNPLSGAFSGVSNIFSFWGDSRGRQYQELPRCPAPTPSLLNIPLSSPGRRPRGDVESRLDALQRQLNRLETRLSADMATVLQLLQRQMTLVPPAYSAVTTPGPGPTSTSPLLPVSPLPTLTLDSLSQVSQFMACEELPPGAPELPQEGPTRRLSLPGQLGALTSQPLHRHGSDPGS
SMILES,EC50 [3] [nM],Emax (HIT-T15) [%],other results
CC(C)(C)OC(=O)N1CCC(n2ncc3c(Oc4ccc(F)cc4)ncnc32)CC1,540,82,–
CC(C)(C)CC(=O)N1CCC(n2ncc3c(Oc4ccc(S(C)(=O)=O)cc4)ncnc32)CC1,270,58,–
CC(C)OC(=O)N1CCC(n2ncc3c(Oc4ccc(S(C)(=O)=O)cc4)ncnc32)CC1,150,92,IC50 (Cytochrome P450 2C9): > 6 µM; Cmax [4]: 13.2 µM; IC50 (Cytochrome P450 3A4): > 6 µM; microsomal CLint [1]: 85 µL/min/mg; Vd [5]: 0.46 L/kg; Stability (Hepatocyte): Unstable; IC20 (hERG (KCNH2)): 500 nM; clearance [6]: 3.3 mL/min/kg; Tmax [7]: 4 h; AUC [8]: 25300 ng·h/mL; solubility kinetic [2]: < 1 µg/mL; bioavailability [9]: 82%; Activity (Mus musculus): 44%; AUC [10]: 41300 ng·h/mL; half-life [11]: 96 min
CC(C)(C)OC(=O)N1CCC(n2ncc3c(Oc4cccc(C(C)(C)C)c4)ncnc32)CC1,> 25000,27,–
CC(C)(C)OC(=O)N1CCC(n2ncc3c(Oc4cc(F)c(F)cc4F)ncnc32)CC1,88,95,–
CC(=O)c1ccc(Oc2ncnc3c2cnn3C2CCN(C(=O)OC(C)(C)C)CC2)cc1,160,83,–
CC(C)OC(=O)N1CCC(n2ncc3c(Nc4ccc(S(C)(=O)=O)cc4)ncnc32)CC1,5740,92,–
CC(C)COC(=O)N1CCC(n2ncc3c(Oc4ccc(S(C)(=O)=O)cc4)ncnc32)CC1,110,84,–
CC(C)(C)OC(=O)N1CCC(n2ncc3c(Oc4ccc(C(C)(C)C)cc4)ncnc32)CC1,> 25000,13,–
CC(C)(C)OC(=O)N1CCC(n2ncc3c(Oc4ccccc4F)ncnc32)CC1,190,107,–
COc1cc(OC)cc(Oc2ncnc3c2cnn3C2CCN(C(=O)OC(C)(C)C)CC2)c1,6400,34,–
CS(=O)(=O)c1ccc(Oc2ncnc3c2cnn3C2CCN(Cc3ccc(C(F)(F)F)cc3)CC2)cc1,36,59,IC50 (Cytochrome P450 2C9): > 6 µM; IC50 (Cytochrome P450 3A4): 1.8 µM; microsomal CLint [1]: 114 µL/min/mg; IC20 (hERG (KCNH2)): 200 nM; solubility kinetic [2]: < 1 µg/mL
CS(=O)(=O)c1ccc(Oc2ncnc3c2cnn3C2CCN(Cc3ccc(Cl)cc3)CC2)cc1,570,73,–
CC(C)CC(=O)N1CCC(n2ncc3c(Oc4ccc(S(C)(=O)=O)cc4)ncnc32)CC1,330,59,IC50 (Cytochrome P450 2C9): > 25 µM; IC50 (Cytochrome P450 3A4): > 25 µM; microsomal CLint [1]: 29 µL/min/mg; IC20 (hERG (KCNH2)): 2700 nM; solubility kinetic [2]: 32 µg/mL

# More lines, main results first:
EC50 [3] [nM],SMILES,Emax (HIT-T15) [%],other results
240,CC(C)(C)OC(=O)N1CCC(n2ncc3c(Nc4ccc(S(C)(=O)=O)cc4F)ncnc32)CC1,103,IC50 (Cytochrome P450 2C9): 0.9 µM; microsomal CLint [1]: 70 µL/min/mg; IC20 (hERG (KCNH2)): 2600 nM; solubility kinetic [2]: 8 µg/mL
61,CC(C)(C)OC(=O)N1CCC(n2ncc3c(Oc4ccccc4C#N)ncnc32)CC1,–,–
200,CS(=O)(=O)c1ccc(Oc2ncnc3c2cnn3C2CCN(Cc3ccc(F)cc3)CC2)cc1,69,–
1000,CS(=O)(=O)c1ccc(Oc2ncnc3c2cnn3C2CCN(C(=O)CCc3ccccc3)CC2)cc1,94,–
100,CC(C)(C)COC(=O)N1CCC(n2ncc3c(Oc4ccc(S(C)(=O)=O)cc4)ncnc32)CC1,93,–
280,CS(=O)(=O)c1ccc(Oc2ncnc3c2cnn3C2CCN(Cc3cccc(Cl)c3)CC2)cc1,83,–
> 25000,CC(C)(C)OC(=O)N1CCC(n2ncc3c(Oc4ccccc4)ncnc32)CC1,30,–
1400,CC(C)(C)OC(=O)N1CCC(n2ncc3c(Nc4ccc(S(C)(=O)=O)cc4)ncnc32)CC1,105,–
580,CC(C)(C)OC(=O)N1CCC(n2ncc3c(Oc4ccc(C#N)cc4)ncnc32)CC1,87,–
19000,CS(=O)(=O)c1ccc(Nc2ncnc3c2cnn3C2CCN(Cc3ccccc3)CC2)cc1,64,–
120,CS(=O)(=O)c1ccc(Oc2ncnc3c2cnn3C2CCN(Cc3cccc(OC(F)(F)F)c3)CC2)cc1,54,–
530,CC(C)(C)OC(=O)N1CCC(n2ncc3c(Nc4cc(F)c(F)cc4F)ncnc32)CC1,97,–
18,CS(=O)(=O)c1ccc(Oc2ncnc3c2cnn3C2CCN(C(=O)OCC(Cl)(Cl)Cl)CC2)cc1,90,–
650,CCOC(=O)N1CCC(n2ncc3c(Oc4ccc(S(C)(=O)=O)cc4)ncnc32)CC1,81,–
43,CC(C)(C)OC(=O)N1CCC(n2ncc3c(Oc4ccc(S(C)(=O)=O)cc4)ncnc32)CC1,101,IC50 (Cytochrome P450 2C9): > 3 µM; IC50 (Cytochrome P450 3A4): 3.1 µM; microsomal CLint [1]: 86 µL/min/mg; IC20 (hERG (KCNH2)): 2700 nM; solubility kinetic [2]: < 1 µg/mL; Activity (Mus musculus): inactive
580,CS(=O)(=O)c1ccc(Oc2ncnc3c2cnn3C2CCN(Cc3ccccc3)CC2)cc1,87,–
> 25000,CC(C)(C)OC(=O)N1CCC(n2ncc3c(Oc4ccc(C(F)(F)F)cc4)ncnc32)CC1,27,–
990,CC(C)C(=O)N1CCC(n2ncc3c(Oc4ccc(S(C)(=O)=O)cc4)ncnc32)CC1,60,–
